Experimental data as given in PubChem BioAssay AID1963835 (Molecular Pharmacology Branch, DTP, NCI, 2024).

Test system: 699152-130-R-J1-PDC complex spheroid viability
Experiment: Anticancer human tumor 699152-130-R-J1-PDC patient-derived pancreatic carcinoma cell line growth inhibition [POLQ]
Conditions: for IC50: curve of first compound; for viability, T/C: stronger effect = lower value
Method in brief: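 PDC + HUVEC + MSC complex spheroids; POLQ inhibitors ± partner drugs; top conc. at/near clinical Cmax, else 10 microM (SN-38 1 microM), half-log dilutions; 37 degrees C, 5% CO2.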

[1] = second compound 0.0316 µM, first compound 0.00316 µM
[2] = second compound 0.0316 µM, first compound 0.01 µM
[3] = second compound 0.0316 µM, first compound 0.0316 µM
[4] = second compound 0.0316 µM, first compound 0.1 µM
[5] = second compound 0.1 µM, first compound 0.00316 µM
[6] = second compound 0.1 µM, first compound 0.01 µM
[7] = second compound 0.1 µM, first compound 0.0316 µM
[8] = second compound 0.1 µM, first compound 0.1 µM
[9] = second compound 0.316 µM, first compound 0.00316 µM
[10] = second compound 0.316 µM, first compound 0.01 µM
[11] = second compound 0.316 µM, first compound 0.0316 µM
[12] = second compound 0.316 µM, first compound 0.1 µM
[13] = second compound 1 µM, first compound 0.00316 µM
[14] = second compound 1 µM, first compound 0.01 µM
[15] = second compound 1 µM, first compound 0.0316 µM
[16] = second compound 1 µM, first compound 0.1 µM
[17] = second compound 3.16 µM, first compound 0.00316 µM
[18] = second compound 3.16 µM, first compound 0.01 µM
[19] = second compound 3.16 µM, first compound 0.0316 µM
[20] = second compound 3.16 µM, first compound 0.1 µM
[21] = second compound 10 µM, first compound 0.00316 µM
[22] = second compound 10 µM, first compound 0.01 µM
[23] = second compound 10 µM, first compound 0.0316 µM
[24] = second compound 10 µM, first compound 0.1 µM
[25] = second compound 0.0316 µM, first compound 0.316 µM
[26] = second compound 0.0316 µM, first compound 1 µM
[27] = second compound 0.0316 µM, first compound 3.16 µM
[28] = second compound 0.0316 µM, first compound 10 µM
[29] = second compound 0.1 µM, first compound 0.316 µM
[30] = second compound 0.1 µM, first compound 1 µM
[31] = second compound 0.1 µM, first compound 3.16 µM
[32] = second compound 0.1 µM, first compound 10 µM
[33] = second compound 0.316 µM, first compound 0.316 µM
[34] = second compound 0.316 µM, first compound 1 µM
[35] = second compound 0.316 µM, first compound 3.16 µM
[36] = second compound 0.316 µM, first compound 10 µM
[37] = second compound 1 µM, first compound 0.316 µM
[38] = second compound 1 µM, first compound 1 µM
[39] = second compound 1 µM, first compound 3.16 µM
[40] = second compound 1 µM, first compound 10 µM
[41] = second compound 3.16 µM, first compound 0.316 µM
[42] = second compound 3.16 µM, first compound 1 µM
[43] = second compound 3.16 µM, first compound 3.16 µM
[44] = second compound 3.16 µM, first compound 10 µM
[45] = second compound 10 µM, first compound 0.316 µM
[46] = second compound 10 µM, first compound 1 µM
[47] = second compound 10 µM, first compound 3.16 µM
[48] = second compound 10 µM, first compound 10 µM
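Note: spheroids exposed to agents for 7 days before viability reading.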
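Throughout, for viability, T/C: percent of DMSO vehicle control viability so 100% = vehicle and 0% = no viable signal.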

Cn1ncnc1[C@H]1c2n[nH]c(=O)c3cc(F)cc(c23)N[C@@H]1c1ccc(F)cc1 + COC1C(OC(N)=O)C(O)C(Oc2ccc3c(O)c(NC(=O)c4ccc(O)c(CC=C(C)C)c4)c(=O)oc3c2C)OC1(C)C
IC50 (second compound 0.0316 µM): > 100 nM | IC50 (second compound 0.1 µM): > 100 nM | IC50 (second compound 0.316 µM): > 100 nM | IC50 (second compound 1 µM): > 100 nM | IC50 (second compound 3.16 µM): > 100 nM | IC50 (second compound 10 µM): > 100 nM | viability, T/C (second compound 0.0316 µM, first compound 0.000316 µM): 114% | viability, T/C (second compound 0.0316 µM, first compound 0.001 µM): 86.2% | viability, T/C [1]: 101% | viability, T/C [2]: 93.4% | viability, T/C [3]: 92.9% | viability, T/C [4]: 84.8% | viability, T/C (second compound 0.1 µM, first compound 0.000316 µM): 102% | viability, T/C (second compound 0.1 µM, first compound 0.001 µM): 105% | viability, T/C [5]: 87.1% | viability, T/C [6]: 111% | viability, T/C [7]: 85% | viability, T/C [8]: 80% | viability, T/C (second compound 0.316 µM, first compound 0.000316 µM): 101% | viability, T/C (second compound 0.316 µM, first compound 0.001 µM): 99.5% | viability, T/C [9]: 92.3% | viability, T/C [10]: 103% | viability, T/C [11]: 87.8% | viability, T/C [12]: 83.6% | viability, T/C (second compound 1 µM, first compound 0.000316 µM): 119% | viability, T/C (second compound 1 µM, first compound 0.001 µM): 107% | viability, T/C [13]: 101% | viability, T/C [14]: 102% | viability, T/C [15]: 93.9% | viability, T/C [16]: 82.5% | viability, T/C (second compound 3.16 µM, first compound 0.000316 µM): 95.3% | viability, T/C (second compound 3.16 µM, first compound 0.001 µM): 89.3% | viability, T/C [17]: 90.9% | viability, T/C [18]: 96.9% | viability, T/C [19]: 90.8% | viability, T/C [20]: 80.8% | viability, T/C (second compound 10 µM, first compound 0.000316 µM): 98.7% | viability, T/C (second compound 10 µM, first compound 0.001 µM): 105% | viability, T/C [21]: 93.9% | viability, T/C [22]: 103% | viability, T/C [23]: 88.4% | viability, T/C [24]: 90.4%

C#Cc1c(F)ccc2cc(O)cc(-c3ncc4c(N5CC6CCC(C5)N6)nc(OCC56CCCN5CC(F)C6)nc4c3F)c12 (stereo not drawn) + Nc1ccc(C#CCN(C(=O)Cc2ncc(C(F)(F)F)cc2C(F)(F)F)c2ccc(F)cc2)nn1
IC50 (second compound 0.0316 µM): < 31.6 nM | IC50 (second compound 0.1 µM): < 31.6 nM | IC50 (second compound 0.316 µM): < 31.6 nM | IC50 (second compound 1 µM): < 31.6 nM | IC50 (second compound 3.16 µM): < 31.6 nM | IC50 (second compound 10 µM): < 31.6 nM | viability, T/C [3]: 26% | viability, T/C [4]: 18.8% | viability, T/C [25]: 14.6% | viability, T/C [26]: 12.1% | viability, T/C [27]: 14.2% | viability, T/C [28]: 11.9% | viability, T/C [7]: 25.1% | viability, T/C [8]: 21.8% | viability, T/C [29]: 15.4% | viability, T/C [30]: 13.7% | viability, T/C [31]: 13.3% | viability, T/C [32]: 13.2% | viability, T/C [11]: 24% | viability, T/C [12]: 16.3% | viability, T/C [33]: 18.9% | viability, T/C [34]: 12.3% | viability, T/C [35]: 12.4% | viability, T/C [36]: 12.1% | viability, T/C [15]: 18.8% | viability, T/C [16]: 18.8% | viability, T/C [37]: 13.5% | viability, T/C [38]: 12.8% | viability, T/C [39]: 12.8% | viability, T/C [40]: 12.4% | viability, T/C [19]: 21.6% | viability, T/C [20]: 16.9% | viability, T/C [41]: 13% | viability, T/C [42]: 13.3% | viability, T/C [43]: 11.8% | viability, T/C [44]: 14.2% | viability, T/C [23]: 32.2% | viability, T/C [24]: 18.8% | viability, T/C [45]: 14.3% | viability, T/C [46]: 14.6% | viability, T/C [47]: 13.5% | viability, T/C [48]: 11.5%

CC1COCCN1c1cc(C2(O)CC3CCC(C2)O3)c2cnn(-c3ccn[nH]3)c2n1 (stereo not drawn) + Nc1ccc(C#CCN(C(=O)Cc2ncc(C(F)(F)F)cc2C(F)(F)F)c2ccc(F)cc2)nn1
IC50 (second compound 0.0316 µM): 1490 nM | IC50 (second compound 0.1 µM): 2700 nM | IC50 (second compound 0.316 µM): 1500 nM | IC50 (second compound 1 µM): 1380 nM | IC50 (second compound 3.16 µM): 1520 nM | IC50 (second compound 10 µM): 2210 nM | viability, T/C [3]: 85.6% | viability, T/C [4]: 81.3% | viability, T/C [25]: 60.7% | viability, T/C [26]: 56.8% | viability, T/C [27]: 42.5% | viability, T/C [28]: 35.1% | viability, T/C [7]: 86.6% | viability, T/C [8]: 79.1% | viability, T/C [29]: 68.1% | viability, T/C [30]: 61.3% | viability, T/C [31]: 48.6% | viability, T/C [32]: 36.2% | viability, T/C [11]: 94.9% | viability, T/C [12]: 85.7% | viability, T/C [33]: 66.8% | viability, T/C [34]: 53.6% | viability, T/C [35]: 44.8% | viability, T/C [36]: 35.9% | viability, T/C [15]: 104% | viability, T/C [16]: 83.5% | viability, T/C [37]: 67.2% | viability, T/C [38]: 53.2% | viability, T/C [39]: 42.5% | viability, T/C [40]: 30.6% | viability, T/C [19]: 100% | viability, T/C [20]: 84.6% | viability, T/C [41]: 65.5% | viability, T/C [42]: 51% | viability, T/C [43]: 48.9% | viability, T/C [44]: 40.3% | viability, T/C [23]: 104% | viability, T/C [24]: 90.9% | viability, T/C [45]: 65.2% | viability, T/C [46]: 56.8% | viability, T/C [47]: 51.5% | viability, T/C [48]: 37.1%

CCc1c2c(nc3ccc(O)cc13)-c1cc3c(c(=O)n1C2)COC(=O)[C@]3(O)CC + COC1C(OC(N)=O)C(O)C(Oc2ccc3c(O)c(NC(=O)c4ccc(O)c(CC=C(C)C)c4)c(=O)oc3c2C)OC1(C)C
IC50 (second compound 0.0316 µM): 22.6 nM | IC50 (second compound 0.1 µM): 21.3 nM | IC50 (second compound 0.316 µM): 25 nM | IC50 (second compound 1 µM): 40.5 nM | IC50 (second compound 3.16 µM): 25.6 nM | IC50 (second compound 10 µM): 24.9 nM | viability, T/C [1]: 73.5% | viability, T/C [2]: 51.3% | viability, T/C [3]: 43.5% | viability, T/C [4]: 41.9% | viability, T/C [25]: 24.4% | viability, T/C [26]: 9.02% | viability, T/C [5]: 79.7% | viability, T/C [6]: 49.5% | viability, T/C [7]: 45.1% | viability, T/C [8]: 37.3% | viability, T/C [29]: 26.5% | viability, T/C [30]: 10.1% | viability, T/C [9]: 79% | viability, T/C [10]: 46.1% | viability, T/C [11]: 47.6% | viability, T/C [12]: 43.4% | viability, T/C [33]: 22% | viability, T/C [34]: 12.9% | viability, T/C [13]: 66.9% | viability, T/C [14]: 57% | viability, T/C [15]: 51.8% | viability, T/C [16]: 45% | viability, T/C [37]: 23.1% | viability, T/C [38]: 7.35% | viability, T/C [17]: 66.7% | viability, T/C [18]: 51.6% | viability, T/C [19]: 46.9% | viability, T/C [20]: 40.4% | viability, T/C [41]: 28.5% | viability, T/C [42]: 7.68% | viability, T/C [21]: 70.5% | viability, T/C [22]: 55.7% | viability, T/C [23]: 43.6% | viability, T/C [24]: 39.6% | viability, T/C [45]: 28% | viability, T/C [46]: 7.11%
